One experiment has as its system promyelocytic leukemia cell-line HL-60. Put plainly: Differentiation Inducing Activity on HL-60 (differentiation to granulocyte; morphological observation of nucleus and NBT reduction). It counts as cell-based. As to conditions: Homo sapiens, HL-60, read-out: ED50 (concentration which induced differentiation in the half of the cells). The method, then:
The activities of the compounds of the above-described examples on differentiation were evaluated using promyelocytic leukemia cell-line HL-60 according to the method described in Japanese Patent Unexamined Publication No. 61-76440. The differentiation to granulocyte was evaluated by morphological observation of nucleus and measurement of ability to reduce nitroblue-tetrazolium (NBT). These are well known procedures providing adequate results in the evaluation of the cell differentiation-inducing activity of retinoids. Retinoic acid was used as the reference compound, and the concentrations which induced differentiation in the half of the cells were calculated.
On to `CC1=C(/C=C/C(C)=C/C=C/C(C)=C/C(=O)O)C(C)(C)CCC1` [Retinoic Acid, Retinoic acid, reference compound], for which the EC50 amounted to 2.4 nM.

The same experiment, now with this note: Homo sapiens; HL-60 cells; differentiation to granulocyte; nucleus morphology and nitroblue-tetrazolium (NBT) reduction; read-out: ED50 (concentration which induced differentiation in the half of the cells).
With `CC1(C)CCC(C)(C)c2cc(C(=O)Nc3ccc(C(=O)O)cc3O)ccc21` [Example 4, 3-Hydroxy-4-(5,6,7,8-tetrahydro-5,5,8,8-tetramethyl-2-naphthalenylcarboxamide)benzoic acid], the EC50 stood at 6.5 nM.

Regarding `CC(C)c1ccc(NC(=O)c2ccc(C(=O)O)cn2)cc1C(C)C` [Example 5, 6-(3,4-Di-isopropylphenylcarbamoyl)pyridine-3-carboxylic acid], the EC50 was determined as 25 nM.

In the case of `CC1(C)CCC(C)(C)c2cc(NC(=O)c3ccc(C(=O)O)cn3)ccc21` [Example 2, 6-(5,6,7,8-Tetrahydro-5,5,8,8-tetramethyl-2naphthalenylcarbamoyl) pyridine-3-carboxylic acid], the EC50 came to 0.22 nM.

As to `CC1(C)CCC(C)(C)c2cc(NC(=O)c3ccc(C(=O)O)cc3O)ccc21` [Example 3, 3-Hydroxy-4-(5,6,7,8-tetrahydro-5,5,8,8-tetramethyl-2-naphthalenylcarbamoyl)benzoic acid], the EC50 turned out to be 0.41 nM.

With `CC1(C)CCC(C)(C)c2cc(NC(=O)c3ccc(C(=O)O)nc3)ccc21` [Example 1, 5-(5,6,7,8-Tetrahydro-5,5,8,8-tetramethyl-2-naphthalenyl-carbamoyl)pyridine-2-carboxylic acid], the EC50 was 40 nM.

Source of the values: patent publication US5420145A, “Carboxylic acid derivative” (Shudo; Koichi, priority 1993, dated 1995).
